The values below come from ChEMBL document CHEMBL4004874, “Synthesis and biological evaluation of C-3 aliphatic coumarins as vitamin K antagonists” (Bioorg Med Chem Lett, 2017).

The structures appear in SMILES notation. pKi: −log10 of the molar value.

For data set [1], the target named is T1, Vitamin K epoxide reductase complex subunit 1 (Rattus norvegicus, UniProt Q6TEK4).
T1 sequence (Q6TEK4 whole entry): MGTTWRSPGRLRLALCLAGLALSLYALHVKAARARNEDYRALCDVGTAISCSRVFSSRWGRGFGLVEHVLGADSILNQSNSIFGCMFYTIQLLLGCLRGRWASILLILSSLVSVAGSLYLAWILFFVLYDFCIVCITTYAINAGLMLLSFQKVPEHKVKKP
Kind of data set: Inhibition of VKORC1 in rat liver microsomes in presence of 0.003 to 0.2 mM vitamin K. (Liver microsomes are a subcellular fraction often used to study metabolism.)

Data set [2] has as its system Liver. Kind of data set: Drug uptake in Sprague-Dawley rat liver assessed per gram of liver at 10 mg/kg, po by HPLC-UV analysis. Particulars: in vivo. Type of data set: ADME, organism-based.
Data set [3] concerns Rattus norvegicus. As to the kind of experiment: Anticoagulant activity in Sprague-Dawley rat assessed as increase of prothombin time at 10 mg/kg, po after 24 hrs relative to control. Type of data set: functional.
Data set [4] has as its system Liver. As to the kind of experiment: Drug uptake in Sprague-Dawley rat liver assessed per gram of liver at 10 mg/kg, po after 24 hrs by HPLC-UV analysis. In kind it is ADME, organism-based. Particulars: in vivo.
Data set [5] relates to Rattus norvegicus. Kind of data set: Anticoagulant activity in Sprague-Dawley rat assessed as increase of prothombin time at 10 mg/kg, po after 7 hrs relative to control. Type of data set: functional.
Data set [6] has as its system Rattus norvegicus. Kind of data set: Anticoagulant activity in Sprague-Dawley rat assessed as increase of prothombin time at 10 mg/kg, po after 72 hrs relative to control. Type of data set: functional.
The test system of data set [7] is Liver. As to the kind of experiment: Drug uptake in Sprague-Dawley rat liver assessed per gram of liver at 10 mg/kg, po after 72 hrs by HPLC-UV analysis. Type of data set: ADME, organism-based. The settings on record: in vivo.
Data set [8] deals with Liver. Kind of data set: Drug uptake in Sprague-Dawley rat liver assessed per gram of liver at 10 mg/kg, po after 7 hrs by HPLC-UV analysis. The settings on record: in vivo. In kind it is ADME, organism-based.

The pKi is the Ki on a negative log10 scale, so that one unit is a factor of ten.

Regarding `CCCCCCCCCCCC(c1ccc(C(C)(C)C)cc1)c1c(O)c2ccccc2oc1=O` (stereo not given), the pKi in data set [1] was 4.66.

Consider `CCCCCCCCCCc1c(O)c2ccccc2oc1=O`, for which, in data set [1], the negative logarithm of the Ki (pKi) is 7.05.

In the data set with Liver [2], `C/C(=C\Cc1c(O)c2ccccc2oc1=O)CCCC(C)CCCC(C)CCCC(C)C` (stereo not given) registered a Drug uptake of 1.3 µg/g. In addition, the negative logarithm of the Ki (pKi) in data set [1] is 7.70. Besides, the “fold change (FC)” value in the data set on Rattus norvegicus [3] turned out to be 1.

Consider `CCCCCCCCCCCC(c1ccc(Cl)cc1)c1c(O)c2ccccc2oc1=O` (stereo not given), for which the Drug uptake was found to be 3 µg/g in the data set on Liver [4], 1 µg/g in the data set with Liver [7] and 13 µg in the data set on Liver [8]. For the same molecule, the “fold change (FC)” value stood at 1 in the data set with Rattus norvegicus [5], 1 in the data set with Rattus norvegicus [6] and 4 with Rattus norvegicus [3]. The pKi in data set [1] is 7.70.

Turning to `CCC(c1ccccc1)c1c(O)c2ccccc2oc1=O` (stereo not given) [PHENPROCOUMON], the figures for the Drug uptake in the data set on Liver [4] and in the data set with Liver [7] were 12.8 µg/g and 1.7 µg/g, respectively. Further, the pKi in data set [1] was 6.70. In addition, the “fold change (FC)” value in the data set with Rattus norvegicus [3] was 5.5.

`CC(C)CCCC(C)CCCC(C)CCCC(C)CC(c1ccccc1)c1c(O)c2ccccc2oc1=O` (stereo not given): the Drug uptake result in the data set with Liver [2] (BLD = below limit of detection) is given as “Bld”. Moreover, in data set [1], the pKi was 6.70. Further, the “fold change (FC)” value in the data set with Rattus norvegicus [3] is given as 1.

Take `CCCCCCCCCCCCc1c(O)c2ccccc2oc1=O`: the Drug uptake in the data set on Liver [4] was 0.7 µg/g. Also, the negative logarithm of the Ki (pKi) in data set [1] was 7.30. In addition, the “fold change (FC)” value in the data set with Rattus norvegicus [3] was 1.

In the data set on Liver [4], `CCCCCCCCCCCC(c1ccccc1)c1c(O)c2ccccc2oc1=O` (stereo not given) displayed a Drug uptake of 0.7 µg/g. For the same molecule, the pKi in data set [1] is 7.52. Besides, the “fold change (FC)” value in the data set on Rattus norvegicus [3] was 1.

`CCCCCCCCCCCc1c(O)c2ccccc2oc1=O`: the pKi in data set [1] is 7.22.

Consider `CCCCCCCCc1c(O)c2ccccc2oc1=O`, for which, in data set [1], the pKi was 6.59.

As to `CCCCCCc1c(O)c2ccccc2oc1=O`, the pKi in data set [1] was 5.41.

Turning to `CC(C)CCCC(C)CCCC(C)CCCC(C)CCc1c(O)c2ccccc2oc1=O` (stereo not given), the Drug uptake result in the data set on Liver [2] (BLD = below limit of detection) is “Bld”. Further, the negative logarithm of the Ki (pKi) in data set [1] is 7.30. Also, in the data set on Rattus norvegicus [3], the “fold change (FC)” value was determined as 1.

Take `CCCCCCCCCCCC(c1ccc(Cl)cc1Cl)c1c(O)c2ccccc2oc1=O` (stereo not given): the Drug uptake in the data set with Liver [4] is 3.5 µg/g; with Liver [7], 0.7 µg/g. For the same molecule, the results for the “fold change (FC)” value with Rattus norvegicus [6] and with Rattus norvegicus [3] were 1 and 2, respectively. Also, the pKi in data set [1] was 7.05.

Regarding `CCCCCCCCCCCC(c1ccc(F)cc1)c1c(O)c2ccccc2oc1=O` (stereo not given), the Drug uptake in the data set with Liver [4] came to 0.7 µg/g. Also, the pKi in data set [1] was 7.70. Further, the “fold change (FC)” value in the data set on Rattus norvegicus [3] is 2.

For the molecule `CCCCCCCCCCCC(c1ccc(OC)cc1)c1c(O)c2ccccc2oc1=O` (stereo not given), the negative-log Ki (pKi) in data set [1] was 7.00.
